In one experiment the target is T1, PDE4B1 (Homo sapiens, UniProt Q07343).
T1 construct: made in house; host or cells: SF21 insect cells (baculovirus; virus made in SF9 cells, pCR-Bac vector)
As to the kind of experiment: Inhibition of PDE4 activity (PDE4B1, SPA assay). Format: biochemical. The conditions noted are these: recombinant PDE4B1, 0.5 μM cAMP; read-out: PDE4B1 Inhibitory values measured as -logIC50 (converted). The procedure:
Method for Measuring Inhibition of PDE4 Activity
The PDE4B1 (GB no. L20966) was a gift of Prof. M. Conti (Stanford University, USA). It was amplified from the original plasmid (pCMV5) via PCR with primers Rb18 (5′-[…]-3′) and Rb10 (5′-[…]-3′) and cloned into the pCR-Bac vector (Invitrogen, Groningen, NL).
The recombinant baculovirus was prepared by means of homologous recombination in SF9 insect cells. The expression plasmids were cotransfected with Baculo-Gold DNA (Pharmingen, Hamburg) using a standard protocol (Pharmingen, Hamburg). Wt virus-free recombinant virus supernatants were selected using plaque assay methods. After that, high-titre virus supernatants were prepared by amplifying 3 times. PDE4B1 was expressed in SF21 cells by infecting 2×10^6 cells/ml with an MOI (multiplicity of infection) between 1 and 10 in the serum-free SF900 medium (GIBCO Life Technologies, Karlsruhe, Germany) The cells were cultured at 28° C. for 48-72 hours, after which they were pelleted for 5-10 min at 1000×g and 4° C.
The SF21 insect cells were resuspended, at a concentration of approx. 10^7 cells/ml, in ice-cold (4° C.) homogenization buffer (20 mM Tris, pH 8.2, containing the following additions: 140 mM NaCl, 3.8 mM KCl, 1 mM EGTA, 1 mM MgCl2, 10 mM β-mercaptoethanol, 2 mM benzamidine, 0.4 mM Pefablock, 10 μM leupeptin, 10 μM pepstatin A, 5 μM trypsin inhibitor) and disrupted by ultrasonication. The homogenate was then centrifuged for 10 min at 1000×g and the supernatant was stored at −80° C. until subsequent use (see below). The protein content was determined by the Bradford method (BioRad, Munich) using BSA (Bovine serum albumin) as the standard.
PDE4B1 activities were measured in a 96-well platform using SPA (scintillation proximity assay) yttrium silicate beads (RPNQ1050 from GE Healthcare). In a first step the PDE activity operated hydrolysis of either [^3H] cAMP (substrate) into […]. In a second step substrate and product were distinguished following addition of SPA yttrium silicate beads. […] Close proximity of bound [^3H] […] The test volume was 100 μl and finally contained 20 mM Tris buffer (pH 7.4), 0.1 mg/ml of BSA, 5 mM Mg^2+, 0.5 μM cAMP (including about 50,000 cpm of [3H]cAMP) as substrate, 1 μl of the respective substance dilution in DMSO and sufficient recombinant PDE (1000×g supernatant, see above) to ensure that 10-20% of the cAMP was converted under the said experimental conditions. […] After a preincubation of 5 min at 37° C., the reaction was commenced by adding the substrate (cAMP) and the assays were incubated for a further 15 min. Reactions were terminated by adding SPA beads (50 μl). In agreement with the manufacturer's instructions, the SPA beads had previously been resuspended in water, but were then diluted 1:3 (v/v) in water. This diluted solution further contained 3 mM IBMX (isobutylmethylxanthine) to ensure a complete block of PDE activity. Once the beads were sedimented (>30 min), the MTP's (micro titerplate) were analyzed in commercially available […]. The corresponding IC50 values of the compounds for inhibition of PDE4B1 activity were determined from the concentration-effect curves by means of non-linear regression.
(§1) The numbers of the compounds correspond to the numbers of the examples.

The next experiment addresses T2, human PDE5 (Homo sapiens, UniProt O76074).
T2 construct: from tissue; host or cells: human platelets from fresh donor blood (platelet lysate)
As to the kind of experiment: Inhibition of PDE5 activity (platelet lysate, SPA assay). Format: biochemical. Particulars: 0.5 μM cGMP, read-out: PDE5 Inhibitory values measured as -logIC50 (converted). The procedure: Method for Measuring Inhibition of PDE5 Activity
As a source for human PDE5, platelets were used. For that purpose, 150 ml fresh blood from human donors anticoagulated with citrate [final concentration 0.3% (w/v)] was centrifuged at 200 g for 10 min to obtain the so-called platelet-rich-plasma (PRP) as a supernatant. […] After centrifugation (1,400 g, 10 min) the cell pellet was resuspended in 3 ml homogenization buffer (NaCl 140 mM, KCl 3.8 mM, EGTA (ethylene glycol tetraacetic acid) 1 mM, MgCl2 1 mM, Tris-HCl 20 mM, beta-mercaptoethanol 1 mM, pH 8.2) plus protease-inhibitor mix resulting in final concentrations of 0.5 mM Pefablock (Roche), 10 μM Leupeptin, 5 μM Trypsine inhibitor, 2 mM Benzamidin and 10 μM Pepstatin A. The suspension was sonicated and thereafter centrifuged for 15 min at 10,000 g. The resulting supernatant (platelet lysate) was used for enzymatic assays.
PDE5 activities were measured in a 96-well platform using SPA (scintillation proximity assay) yttrium silicate beads (RPNQ1050 from GE Healthcare). In a first step the PDE activity operated hydrolysis of either [^3H] cGMP (substrate) into [^3H] 5′GMP. In a second step substrate and product were distinguished following addition of SPA yttrium silicate beads. Indeed, in the presence of zinc sulphate the linear [^3H] […] Close proximity of bound [^3H] […] The test volume was 100 μl and contained 20 mM Tris buffer (pH 7.4), 0.1 mg of BSA (bovine serum albumin)/ml, 5 mM Mg^2+, 1 μM motapizone (PDE3 Inhibitor), 10 nM PDE2 inhibitor 2-(3,4-dimethoxybenzyl)-7-[(1R,2R)-2-hydroxy-1-(2-phenylethyl)propyl]-5-methylimidazo[5,1-f][1,2,4]triazin-4(3H)-one, 0.5 μM cGMP (cyclic guanosine monophosphate) (including about 50,000 cpm of [3H]cGMP as a tracer) (substrate), 1 μl of the respective compound dilution in dimethylsulfoxide (DMSO) and sufficient PDE5-containing platelet lysat (10,000×g supernatant, see above) to ensure that 10-20% of the cGMP was converted under the said experimental conditions. […] After a preincubation of 5 min at 37° C., the reaction was commenced by adding the substrate (cGMP) and the assay was incubated for a further 15 min. The reaction was terminated by adding SPA beads (50 μl). In agreement with the manufacturer's instructions, the SPA beads had previously been resuspended in water, but were then diluted 1:3 (v/v) in water. This diluted solution also contained 3 mM 8-methoxymethyl-3-isobutyl-1-methylxanthine (IBMX) to ensure a complete block of PDE activity. Once the beads were sedimented (>30 min), the MTP's were analyzed in commercially available luminescence detection devices. The corresponding IC50 values of the compounds for inhibition of PDE activity were determined from the concentration-effect curves by means of non-linear regression.
as §1

The record followed here is patent US20160108049A1 (TAKEDA Gmbh, priority 2011, published 2016).

The structures appear in SMILES notation. A value given as a limit tells only on which side of the number the result lay.

T1 sequence (Q07343 whole entry): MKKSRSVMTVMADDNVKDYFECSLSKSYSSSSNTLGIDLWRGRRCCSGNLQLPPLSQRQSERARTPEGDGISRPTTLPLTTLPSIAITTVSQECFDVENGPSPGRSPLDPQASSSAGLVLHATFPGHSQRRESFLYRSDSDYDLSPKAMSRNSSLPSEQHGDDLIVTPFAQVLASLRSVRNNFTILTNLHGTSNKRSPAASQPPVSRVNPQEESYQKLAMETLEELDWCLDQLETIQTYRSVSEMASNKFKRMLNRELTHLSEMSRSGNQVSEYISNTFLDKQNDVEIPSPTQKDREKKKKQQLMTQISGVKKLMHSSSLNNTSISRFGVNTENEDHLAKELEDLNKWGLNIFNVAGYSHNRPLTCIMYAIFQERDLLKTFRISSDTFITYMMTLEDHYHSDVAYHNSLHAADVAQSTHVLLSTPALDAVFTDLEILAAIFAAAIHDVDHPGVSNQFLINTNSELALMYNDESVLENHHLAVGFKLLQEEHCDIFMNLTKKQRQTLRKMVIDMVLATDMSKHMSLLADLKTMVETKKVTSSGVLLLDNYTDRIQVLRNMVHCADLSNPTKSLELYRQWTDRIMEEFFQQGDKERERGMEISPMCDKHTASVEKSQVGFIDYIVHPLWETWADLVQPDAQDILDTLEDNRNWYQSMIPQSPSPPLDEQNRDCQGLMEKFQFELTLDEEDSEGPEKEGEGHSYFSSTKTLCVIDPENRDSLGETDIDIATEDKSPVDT

Turning to `CCOc1ccc(C[C@@H](NC(=O)c2c(C)[nH]c3c(-c4cc(F)c(OC)cc4OCC4CC4)ncnc23)C(=O)N2CCC(N3N=C(c4ccc(OC)c(OC)c4)[C@H]4CCCC[C@H]4C3=O)CC2)cc1` [Example 8, 4-[2-(cyclopropylmethoxy)-5-fluoro-4-methoxyphenyl]-N-[(2R)-1-{4-[(4aS,8aR)-4-(3,4-dimethoxyphenyl)-1-oxo-4a,5,6,7,8,8a-hexahydrophthalazin-2(1H)-yl]piperidin-1-yl}-3-(4-ethoxyphenyl)-1-oxopropan-2-yl]-6-methyl-5H-pyrrolo[3,2-d]pyrimidine-7-carboxamide], the IC50 at PDE4B1 is 1 to 10 nM; at human PDE5 it was below 1 nM.

For the molecule `CCOc1ccc(C[C@@H](NC(=O)c2c[nH]c3c(-c4c(OCC5CC5)ccc5c4OCO5)ncnc23)C(=O)N2CCC(N3N=C(c4ccc(OC)c(OC)c4)[C@H]4CCCC[C@H]4C3=O)CC2)cc1` [Example 9, 4-[5-(cyclopropylmethoxy)-1,3-benzodioxol-4-yl]-N-[(2R)-1-{4-[(4aS,8aR)-4-(3,4-dimethoxyphenyl)-1-oxo-4a,5,6,7,8,8a-hexahydrophthalazin-2(1H)-yl]piperidin-1-yl}-3-(4-ethoxyphenyl)-1-oxopropan-2-yl]-5H-pyrrolo[3,2-d]pyrimidine-7-carboxamide], the IC50 at PDE4B1 and at human PDE5 was below 1 nM in each case.

In the case of `CCOc1ccc(C[C@@H](NC(=O)c2c(C)[nH]c3c(-c4c(OCC5CC5)ccc5c4OCO5)ncnc23)C(=O)N2CCC(N3N=C(c4ccc(OC)c(OC)c4)[C@H]4CCCC[C@H]4C3=O)CC2)cc1` [Example 10, 4-[5-(cyclopropylmethoxy)-1,3-benzodioxol-4-yl]-N-[(2R)-1-{4-[(4aS,8aR)-4-(3,4-dimethoxyphenyl)-1-oxo-4a,5,6,7,8,8a-hexahydrophthalazin-2(1H)-yl]piperidin-1-yl}-3-(4-ethoxyphenyl)-1-oxopropan-2-yl]-6-methyl-5H-pyrrolo[3,2-d]pyrimidine-7-carboxamide], the IC50 at PDE4B1 and at human PDE5 was below 1 nM each time.

In the case of `COc1ccc(C2=NN(C3CCN(C(=O)[C@@H](Cc4ccc(C(N)=O)cc4)NC(=O)c4c(C)[nH]c5c(-c6c(OCC7CC7)ccc7c6OCO7)ncnc45)CC3)C(=O)[C@@H]3CCCC[C@H]23)cc1OC` [Example 11, N-[(2R)-3-(4-carbamoylphenyl)-1-{4-[(4aS,8aR)-4-(3,4-dimethoxyphenyl)-1-oxo-4a,5,6,7,8,8a-hexahydrophthalazin-2(1H)-yl]piperidin-1-yl}-1-oxopropan-2-yl]-4-[5-(cyclopropylmethoxy)-1,3-benzodioxol-4-yl]-6-methyl-5H-pyrrolo[3,2-d]pyrimidine-7-carboxamide], the IC50 is below 1 nM on PDE4B1 and 1 to 10 nM at human PDE5.

Take `COc1ccc(C2=NN(C3CCN(C(=O)[C@@H](Cc4ccc(-c5ccccc5)cc4)NC(=O)c4c(C)[nH]c5c(-c6c(OCC7CC7)ccc7c6OCO7)ncnc45)CC3)C(=O)[C@@H]3CCCC[C@H]23)cc1OC` [Example 12, N-[(2R)-3-(biphenyl-4-yl)-1-{4-[(4aS,8aR)-4-(3,4-dimethoxyphenyl)-1-oxo-4a,5,6,7,8,8a-hexahydrophthalazin-2(1H)-yl]piperidin-1-yl}-1-oxopropan-2-yl]-4-[5-(cyclopropylmethoxy)-1,3-benzodioxol-4-yl]-6-methyl-5H-pyrrolo[3,2-d]pyrimidine-7-carboxamide]: the IC50 at PDE4B1 and at human PDE5 was 1 to 10 nM each time.

`COc1ccc(C2=NN(C3CCN(C(=O)[C@@H](Cc4ccc(-c5ccccc5)cc4)NC(=O)c4c[nH]c5c(-c6c(OCC7CC7)ccc7c6OCO7)ncnc45)CC3)C(=O)[C@@H]3CCCC[C@H]23)cc1OC` [Example 13, N-[(2R)-3-(biphenyl-4-yl)-1-{4-[(4aS,8aR)-4-(3,4-dimethoxyphenyl)-1-oxo-4a,5,6,7,8,8a-hexahydrophthalazin-2(1H)-yl]piperidin-1-yl}-1-oxopropan-2-yl]-4-[5-(cyclopropylmethoxy)-1,3-benzodioxol-4-yl]-5H-pyrrolo[3,2-d]pyrimidine-7-carboxamide]: the values for the IC50 on PDE4B1 and on human PDE5 were below 1 nM and 1 to 10 nM, respectively.

Regarding `COc1ccc(C2=NN(C3CCN(C(=O)[C@@H](Cc4ccc(C#N)cc4)NC(=O)c4c(C)[nH]c5c(-c6c(OCC7CC7)ccc7c6OCO7)ncnc45)CC3)C(=O)[C@@H]3CCCC[C@H]23)cc1OC` [Example 14, N-[(2R)-3-(4-cyanophenyl)-1-{4-[(4aS,8aR)-4-(3,4-dimethoxyphenyl)-1-oxo-4a,5,6,7,8,8a-hexahydrophthalazin-2(1H)-yl]piperidin-1-yl}-1-oxopropan-2-yl]-4-[5-(cyclopropylmethoxy)-1,3-benzodioxol-4-yl]-6-methyl-5H-pyrrolo[3,2-d]pyrimidine-7-carboxamide], the IC50 at PDE4B1 was 1 to 10 nM; at human PDE5 it was above 10 nM.

In the case of `COc1ccc(C2=NN(C3CCN(C(=O)[C@@H](Cc4ccc(C)cc4)NC(=O)c4c(C)[nH]c5c(-c6c(OCC7CC7)ccc7c6OCO7)ncnc45)CC3)C(=O)[C@@H]3CCCC[C@H]23)cc1OC` [Example 15, 4-[5-(cyclopropylmethoxy)-1,3-benzodioxol-4-yl]-N-[(2R)-1-{4-[(4aS,8aR)-4-(3,4-dimethoxyphenyl)-1-oxo-4a,5,6,7,8,8a-hexahydrophthalazin-2(1H)-yl]piperidin-1-yl}-3-(4-methylphenyl)-1-oxopropan-2-yl]-6-methyl-5H-pyrrolo[3,2-d]pyrimidine-7-carboxamide], the IC50 is below 1 nM on PDE4B1 and 1 to 10 nM on human PDE5.
